ChEMBL document CHEMBL1156230, “Identification of phenylsulfone-substituted quinoxaline (WYE-672) as a tissue selective liver X-receptor (LXR) agonist” (J Med Chem, 2010)
Calls of active or inactive are those of the source. The rule behind the calls is not given here.

What was measured:
Type in all cases: functional, organism-based
Mus musculus [1] = assay: Antiatherosclerotic activity against high fat/high cholesterol fed LDLR-deficient mouse assessed as lipg gene regulation at 3 mg/kg administered with diet for 7 days by Experion chip analysis; parameters: dose 3 mg/kg
Mus musculus [2] = assay: Antiatherosclerotic activity against high fat/high cholesterol fed LDLR-deficient mouse macrophages assessed as induction of ABCA1 expression at 10 mg/kg administered with diet for 8 weeks; parameters: dose 10 mg/kg
Mus musculus [3] = assay: Antiatherosclerotic activity against high fat/high cholesterol fed LDLR-deficient mouse assessed as IPl gene regulation at 10 mg/kg administered with diet for 7 days by Experion chip analysis; parameters: dose 10 mg/kg
Mus musculus [4] = assay: Antiatherosclerotic activity against high fat/high cholesterol fed LDLR-deficient mouse assessed as Irp1 gene regulation at 10 mg/kg administered with diet for 7 days by Experion chip analysis; parameters: dose 10 mg/kg
Mus musculus [5] = assay: Antiatherosclerotic activity against high fat/high cholesterol fed LDLR-deficient mouse assessed as scab1 gene regulation at 3 mg/kg administered with diet for 7 days by Experion chip analysis; parameters: dose 3 mg/kg
Mus musculus [6] = assay: Antiatherosclerotic activity against high fat/high cholesterol fed LDLR-deficient mouse assessed as cyp7a1 gene regulation at 0.6 mg/kg administered with diet for 7 days by Experion chip analysis; parameters: dose 0.6 mg/kg
Mus musculus [7] = assay: Antiatherosclerotic activity against high fat/high cholesterol fed LDLR-deficient mouse assessed as scab1 gene regulation at 0.6 mg/kg administered with diet for 7 days by Experion chip analysis; parameters: dose 0.6 mg/kg
Mus musculus [8] = assay: Antiatherosclerotic activity against high fat/high cholesterol fed LDLR-deficient mouse duodenum assessed as induction of ABCA1 expression at 10 mg/kg administered with diet for 8 weeks; parameters: dose 10 mg/kg
Mus musculus [9] = assay: Antiatherosclerotic activity against high fat/high cholesterol fed LDLR-deficient mouse assessed as apo5 gene regulation at 0.6 mg/kg administered with diet for 7 days by Experion chip analysis; parameters: dose 0.6 mg/kg
Mus musculus [10] = assay: Antiatherosclerotic activity against high fat/high cholesterol fed LDLR-deficient mouse assessed as abcg8 gene regulation at 0.6 mg/kg administered with diet for 7 days by Experion chip analysis; parameters: dose 0.6 mg/kg
Mus musculus [11] = assay: Antiatherosclerotic activity against high fat/high cholesterol fed LDLR-deficient mouse assessed as apoc1 gene regulation at 10 mg/kg administered with diet for 7 days by Experion chip analysis; parameters: dose 10 mg/kg
Mus musculus [12] = assay: Antiatherosclerotic activity against high fat/high cholesterol fed LDLR-deficient mouse macrophages assessed as induction of ABCG1 expression at 3 mg/kg administered with diet for 8 weeks; parameters: dose 3 mg/kg
Mus musculus [13] = assay: Antiatherosclerotic activity against high fat/high cholesterol fed LDLR-deficient mouse assessed as apo5 gene regulation at 10 mg/kg administered with diet for 7 days by Experion chip analysis; parameters: dose 10 mg/kg
Mus musculus [14] = assay: Antiatherosclerotic activity against high fat/high cholesterol fed LDLR-deficient mouse assessed as pltp gene regulation at 0.6 mg/kg administered with diet for 7 days by Experion chip analysis; parameters: dose 0.6 mg/kg
Mus musculus [15] = assay: Antiatherosclerotic activity against high fat/high cholesterol fed LDLR-deficient mouse assessed as abca1 gene regulation at 0.6 mg/kg administered with diet for 7 days by Experion chip analysis; parameters: dose 0.6 mg/kg
Mus musculus [16] = assay: Antiatherosclerotic activity against high fat/high cholesterol fed LDLR-deficient mouse assessed as abca1 gene regulation at 3 mg/kg administered with diet for 7 days by Experion chip analysis; parameters: dose 3 mg/kg
Mus musculus [17] = assay: Antiatherosclerotic activity against high fat/high cholesterol fed LDLR-deficient mouse macrophages assessed as induction of ABCG1 expression at 10 mg/kg administered with diet for 8 weeks; parameters: dose 10 mg/kg
Mus musculus [18] = assay: Antiatherosclerotic activity against high fat/high cholesterol fed LDLR-deficient mouse duodenum assessed as induction of ABCG8 expression at 3 mg/kg administered with diet for 8 weeks; parameters: dose 3 mg/kg
Mus musculus [19] = assay: Antiatherosclerotic activity against high fat/high cholesterol fed LDLR-deficient mouse assessed as adfp gene regulation at 10 mg/kg administered with diet for 7 days by Experion chip analysis; parameters: dose 10 mg/kg
Mus musculus [20] = assay: Antiatherosclerotic activity against high fat/high cholesterol fed LDLR-deficient mouse assessed as scd1 gene regulation at 3 mg/kg administered with diet for 7 days by Experion chip analysis; parameters: dose 3 mg/kg
Mus musculus [21] = assay: Antiatherosclerotic activity against high fat/high cholesterol fed LDLR-deficient mouse assessed as abcg5 gene regulation at 10 mg/kg administered with diet for 7 days by Experion chip analysis; parameters: dose 10 mg/kg
Mus musculus [22] = assay: Antiatherosclerotic activity against high fat/high cholesterol fed LDLR-deficient mouse assessed as srebf1 gene regulation at 10 mg/kg administered with diet for 7 days by Experion chip analysis; parameters: dose 10 mg/kg
Mus musculus [23] = assay: Antiatherosclerotic activity against high fat/high cholesterol fed LDLR-deficient mouse assessed as Irp1 gene regulation at 0.6 mg/kg administered with diet for 7 days by Experion chip analysis; parameters: dose 0.6 mg/kg
Mus musculus [24] = assay: Antiatherosclerotic activity against high fat/high cholesterol fed LDLR-deficient mouse assessed as cyp7a1 gene regulation at 10 mg/kg administered with diet for 7 days by Experion chip analysis; parameters: dose 10 mg/kg
Mus musculus [25] = assay: Antiatherosclerotic activity against high fat/high cholesterol fed LDLR-deficient mouse assessed as apoe gene regulation at 3 mg/kg administered with diet for 7 days by Experion chip analysis; parameters: dose 3 mg/kg
Mus musculus [26] = assay: Antiatherosclerotic activity against high fat/high cholesterol fed LDLR-deficient mouse duodenum assessed as induction of ABCG5 expression at 3 mg/kg administered with diet for 8 weeks; parameters: dose 3 mg/kg
Mus musculus [27] = assay: Antiatherosclerotic activity against high fat/high cholesterol fed LDLR-deficient mouse assessed as abca1 gene regulation at 10 mg/kg administered with diet for 7 days by Experion chip analysis; parameters: dose 10 mg/kg
Mus musculus [28] = assay: Antiatherosclerotic activity against high fat/high cholesterol fed LDLR-deficient mouse duodenum assessed as induction of SREBP-1c expression at 3 mg/kg administered with diet for 8 weeks; parameters: dose 3 mg/kg
Mus musculus [29] = assay: Antiatherosclerotic activity against high fat/high cholesterol fed LDLR-deficient mouse duodenum assessed as induction of SREBP-1c expression at 10 mg/kg administered with diet for 8 weeks; parameters: dose 10 mg/kg
Mus musculus [30] = assay: Antiatherosclerotic activity against high fat/high cholesterol fed LDLR-deficient mouse macrophages assessed as induction of ABCA1 expression at 3 mg/kg administered with diet for 8 weeks; parameters: dose 3 mg/kg
Mus musculus [31] = assay: Antiatherosclerotic activity against high fat/high cholesterol fed LDLR-deficient mouse assessed as srebf1 gene regulation at 0.6 mg/kg administered with diet for 7 days by Experion chip analysis; parameters: dose 0.6 mg/kg
Mus musculus [32] = assay: Antiatherosclerotic activity against high fat/high cholesterol fed LDLR-deficient mouse assessed as IPl gene regulation at 0.6 mg/kg administered with diet for 7 days by Experion chip analysis; parameters: dose 0.6 mg/kg
Mus musculus [33] = assay: Antiatherosclerotic activity against high fat/high cholesterol fed LDLR-deficient mouse assessed as adfp gene regulation at 3 mg/kg administered with diet for 7 days by Experion chip analysis; parameters: dose 3 mg/kg
Mus musculus [34] = assay: Antiatherosclerotic activity against high fat/high cholesterol fed LDLR-deficient mouse duodenum assessed as induction of ABCG5 expression at 10 mg/kg administered with diet for 8 weeks; parameters: dose 10 mg/kg
Mus musculus [35] = assay: Antiatherosclerotic activity against high fat/high cholesterol fed LDLR-deficient mouse assessed as abcg1 gene regulation at 10 mg/kg administered with diet for 7 days by Experion chip analysis; parameters: dose 10 mg/kg
Mus musculus [36] = species on record: Mus musculus; assay: Antiatherosclerotic activity against high fat/high cholesterol fed LDLR-deficient mouse assessed as reduction in total plasma cholesterol
Mus musculus [37] = assay: Antiatherosclerotic activity against high fat/high cholesterol fed LDLR-deficient mouse assessed as pltp gene regulation at 10 mg/kg administered with diet for 7 days by Experion chip analysis; parameters: dose 10 mg/kg
Mus musculus [38] = assay: Antiatherosclerotic activity against high fat/high cholesterol fed LDLR-deficient mouse assessed as adfp gene regulation at 0.6 mg/kg administered with diet for 7 days by Experion chip analysis; parameters: dose 0.6 mg/kg
Mus musculus [39] = assay: Antiatherosclerotic activity against high fat/high cholesterol fed LDLR-deficient mouse macrophages assessed as induction of ABCG1 expression at 0.6 mg/kg administered with diet for 8 weeks; parameters: dose 0.6 mg/kg

| Compound | Activity (Mus musculus [1]) | Activity (Mus musculus [2]) | Activity (Mus musculus [3]) | Activity (Mus musculus [4]) | Activity (Mus musculus [5]) | Activity (Mus musculus [6]) | Activity (Mus musculus [7]) | Activity (Mus musculus [8]) | Activity (Mus musculus [9]) | Activity (Mus musculus [10]) | Activity (Mus musculus [11]) | Activity (Mus musculus [12]) | Activity (Mus musculus [13]) | Activity (Mus musculus [14]) | Activity (Mus musculus [15]) | Activity (Mus musculus [16]) | Activity (Mus musculus [17]) | Activity (Mus musculus [18]) | Activity (Mus musculus [19]) | Activity (Mus musculus [20]) | further results |
| --- | --- | --- | --- | --- | --- | --- | --- | --- | --- | --- | --- | --- | --- | --- | --- | --- | --- | --- | --- | --- | --- |
| Cc1nc2c(C(F)(F)F)cccc2nc1-c1ccc(-c2cccc(S(C)(=O)=O)c2)cc1 | Active | Active | Active | Active | Active | Active | Active | Active | Active | Active | Active | Active | Active | Active | Active | Active | Active | Active | Active | Active | Activity (Mus musculus [21]): Active; Activity (Mus musculus [22]): Active; Activity (Mus musculus [23]): Active; Activity (Mus musculus [24]): Active; Activity (Mus musculus [25]): Active; Activity (Mus musculus [26]): Active; Activity (Mus musculus [27]): Active; Activity (Mus musculus [28]): Active; Activity (Mus musculus [29]): Active; Activity (Mus musculus [30]): Active; Activity (Mus musculus [31]): Active; Activity (Mus musculus [32]): Active; Activity (Mus musculus [33]): Active; Activity (Mus musculus [34]): Active; Activity (Mus musculus [35]): Active; Activity (Mus musculus [36]): inactive; Activity (Mus musculus [37]): Active; Activity (Mus musculus [38]): Active; Activity (Mus musculus [39]): Active |
| O=C(O)Cc1cccc(OCCCN(Cc2cccc(C(F)(F)F)c2Cl)CC(c2ccccc2)c2ccccc2)c1 | Active | Active | Active | Active | Active | Active | Active | Active | Active | Active | Active | Active | Active | Active | Active | Active | Active | Active | Active | Active | Activity (Mus musculus [21]): Active; Activity (Mus musculus [22]): Active; Activity (Mus musculus [23]): Active; Activity (Mus musculus [24]): Active; Activity (Mus musculus [25]): Active; Activity (Mus musculus [26]): Active; Activity (Mus musculus [27]): Active; Activity (Mus musculus [28]): Active; Activity (Mus musculus [29]): Active; Activity (Mus musculus [30]): Active; Activity (Mus musculus [31]): Active; Activity (Mus musculus [32]): Active; Activity (Mus musculus [33]): Active; Activity (Mus musculus [34]): Active; Activity (Mus musculus [35]): Active; Activity (Mus musculus [36]): inactive; Activity (Mus musculus [37]): Active; Activity (Mus musculus [38]): Active; Activity (Mus musculus [39]): Active |
